Legend:
[1] = tested on: human BRAF^V600MUT (M229, M249, M395) or NRAS^Q61MUT (M202, M207, M245) melanoma cell lines; assay: Long-term clonogenic growth: emergence of acquired MAPKi-resistant colonies (DTPPs) in parental melanoma cell lines under MAPKi; assay type: cell-based; details: parental cell lines, FIG. 11C to 11E and FIG. 12
Description: FIGS. 4A-4U. DNA-PKi and/or PARPi co-treatment prevents acquired MAPKi-resistance in human melanoma cell lines. FIGS. 4A to 4O: Long-term clonogenic growth of isogenic parental and acquired MAPKi-resistant BRAF^V600MUT (4A to 4H) or NRAS^Q61MUT (4I to 4O) human melanoma cell lines showing acquired-resistant colonies to BRAFi+MEKi (PLX4032 at 0.5 mM, AZD6244 at 0.5 mM in 4A and 4G; PLX4032 at 0.25 mM, AZD6244 at 0.25 mM in 4D; PLX4032 at 1 mM, AZD6244 at 1 mM in 4B, 4C, 4E, 4F and 4H) or MEKi (trametinib at 0.005 mM in I and 0.01 mM in 4J and 4N; trametinib at 0.1 mM in 4K, 4M and 4O) and their suppression by indicated co-treatments with DNA-PKi (NU7026) and/or PARPi (ABT888) at indicated concentrations. Top, representative cultures; bottom, quantifications over n=4 fields (mean±SD). Data representative of 2 to 4 independent repeats. Seeding densities (cells/well in 6-well dishes) and culture durations (days): (4A) 5,000; 31, (4B) 1,000; 17, (4C) 5,000; 18, (4D) 40,000; 40, (4E) 5,000; 14, (4F) 5,000; 12, (4G) 20,000; 30, (4H) 20,000; 21, (4I) 40,000; 30, (4J) 50,000; 31, (4K) 5,000; 17, (4L) 5,000; 22, (4M) 5,000; 16, (4N) 20.000; 16, and (4O) 5,000; 16. Data representative of 2 to 4 independent repeats. FIGS. 4P and 4Q: Western blot, MTT assay (upper), and clonogenic growth assay (lower) of M245 cells transduced by lentivirus harboring shVector control or shRNAs of PRKDC (4P) or LIG4 (4Q). TUBULIN, loading control. Clonogenic growth with vehicle (14 days, 5,000 cells/well in 6-well dishes) or MEKi (29 days, 50,000 cells/well in 6-well dishes) treatments. MEKi, trametinib at 0.01 μM. Representative results of two independent experiments; quantification of n=4 fields (mean±SD). FIGS. 4R and 4S: As in 4A and 4J, respectively, except DNA-PKi and/or PARPi co-treatments were performed in M229 (4R) and M245 (4S) at a later stage of MAPKi treatment (see timepoint schema). Inhibitor concentrations for M229: BRAFi+MEKi (PLX4032 at 0.5 μM, AZD6244 at 0.5 μM), NU7026 (8 μM), ABT888 (4 μM) and NU7026+ABT888 (4 μM+4 μM). Inhibitor concentrations for M245: MEKi (trametinib at 0.01 μM), NU7026 (5 μM), ABT888 (1 μM) and NU7026+ABT888 (5 μM+1 μM). Left, representative cultures; right, quantifications over n=4 fields (mean±SD). Data representative of 2 independent repeats. FIGS. 4T and 4U: As in 4A and 4J, respectively, except DNA-PKi and/or PARPi co-treatments were performed in M229 (4T) and M245 cells (4U) at the same concentrations in R and S for the entire durations (day 1-28 in 4T; day 1-30 in 4U), the first half (day 1-14 in T; day 1-15 in 4U) or the second half (day 14-28 in 4T: day 15-30 in 4U) of the total treatment course. Top, representative cultures; bottom, quantifications over n=4 fields (mean±SD). Data representative of 2 independent repeats. P values (one-way ANOVA followed by Tukey's multiple comparison test) comparing indicated cultures versus MAPKi-only cultures (4A to 4O and 4R to 4U) or shVector culture (4P and 4Q): *, p<0.05; **, p<0.01: ***, p<0.001.
FIGS. 12A-12F. DNA-PKi and/or PARPi co-treatment prevents acquired MAPKi-resistance in human melanoma cell lines. FIGS. 12A to 12F: Long-term clonogenic growth of BRAF^V600MUT (12A, 12C and 12E) or NRAS^Q61MUT (12B, 12D and 12F) cell lines showing acquired-resistant colonies to BRAFi+MEKi (PLX4032 at 0.5 mM, AZD6244 at 0.5 mM for M229 and M395; PLX4032 at 0.25 mM, AZD6244 at 0.25 mM for M249) or MEKi (trametinib at 0.005 mM for M202 and 0.01 mM for M207 and M245) and their suppression by indicated co-treatments with DNA-PKi (VX984 in 12A and 12B; AZD7648 in 12C and 12D) and/or PARPi (olaparib in 12E and 12F) at indicated concentrations. Top, representative cultures; bottom, quantifications over n=4 fields (mean±SD). Data representative of 2 independent repeats. Seeding densities (cells/well in 6-well dishes) and culture durations (days): M202 (40,000, 30), M207 (20,000, 16), M229 (5,000, 32), M245 (50,000, 31), M249 (40,000, 40), and M395 (20,000, 30). […]

γH2AX = assay: Immunofluorescence of γH2AX nuclear foci in early on-treatment PDX tumors; assay type: in vivo, NSG mice; details: short-term MEKi treatment in Mel_PDX1; FIG. 13G
Text: FIGS. 13A-13H. In vivo impacts of DNA-PKi when combined with MAPKi. FIGS. 13A and 13B: Long-term follow-up of tumor volumes (13A, BRAFi+MEKi, n=5 tumors; BRAFi+MEKi+DNA-PKi, n=6 tumors) (13B, MEKi, n=6 tumors; MEKi+DNAP-PKi, n=6 tumors) and average mice body weights for 13A and 13B. Related to experiments in FIGS. 7B and 7E, respectively. FIGS. 13C and 13D, Tumor volumes (mean±SEM) of two examples of tumor models treated short-term with vehicle or indicated single versus combined agents. Inhibitors and dosages are identical to those in FIGS. 7C and 7E, respectively. The numbers of tumors and their sizes are shown in the photographs (right) taken at the times of tumor harvest (end points). FIGS. 13E to 13G: Immunofluorescence of p-ERK (13E), p-DNA-PKcs (S2056) (13F), or γH2AX (13G) levels in Mel_PDX1 tumor model, treated with vehicle or indicated single versus combined agents for 11 days (shown in 13C). DAPI, nuclear stain. Scale bar, 50 μm (13E) and 20 μm (13F and 13G). Representative images shown for two tumors analyzed per group. Quantification of p-DNA-PKcs signals obtained by taking the average of positively stained foci per nucleus (13F, representative of 4 fields). Quantification of γH2AX signals analyzed either by percentage of cells with γH2AX foci or percentage of cells with greater than 5 γH2AX foci (13G, representative of 4 fields). […]

SMILES | combinatorial efficacy of next-generation DNA-PKi and PARPi with MAPKi [1] | tumor cells with gH2AX nuclear foci (γH2AX) [%]
O=C(c1cc(Cc2n[nH]c(=O)c3ccccc23)ccc1F)N1CCN(C(=O)C2CC2)CC1 [olaparib] | corroborated the combinatorial efficacy | 
CC(=O)Nc1cccc(-n2c(=O)n(C3CC3)c(=O)c3c(Nc4ccc(I)cc4F)n(C)c(=O)c(C)c32)c1 [trametinib] |  | > 50
Cc1cc2ncnn2cc1Nc1ncc2c(n1)n(C1CCOCC1)c(=O)n2C [AZD7648] | corroborated the combinatorial efficacy | 
